Source: US11096930B2, “Substituted imidazopyridine compounds as inhibitors of indoleamine 2,3-dioxygenase and/or tryptophan-2,3-dioxygenase” (IOMet Pharma Ltd., priority 2016, dated 2021)

What was measured:
[1] = molecular target: T1, IDO (Homo sapiens (Human), UniProt P14902); experiment: SKOV3 (IDO) cell based assay for detection of kynurenine; details: SKOV3 cells, IDO induced by IFN-γ, 48 hours, read-out: pIC50 SKOV3 (IDO) cell based assay (converted)
Experimental: (§1) Exemplary compounds disclosed herein were prepared, and tested to determine their effect as IDO and/or TDO inhibitors. Two different assays were employed: 1. a cell-based assay for detecting the effect of test compounds on kynurenine production in two different cancer cell types. This assay utilized cancer cells which expressed either TDO or IDO and as such was used as a means of testing compound activity at these two enzymes in a cell-based context. 2. a TDO and IDO biochemical coupled assay which utilized recombinantly produced and purified TDO and IDO enzymes in combination with the enzyme formamidase. This coupled enzyme system allowed conversion of N-formylkynurenine produced by TDO or IDO activity to kynurenine which was then quantified by fluorescence following addition of Erhlich's Reagent. The protocols for these are set out below.
(§2) A172 and SKOV3 Cell Based Assays for Detection of Kynurenine Produced by TDO and/or IDO
(§3) A172 (human glioblastoma) and SKOV3 (human ovarian adenocarcinoma) cells were seeded in a 96 well plate at 30,000 or 40,000 cells per well respectively in phenol red-free RPMI supplemented with 10% FCS, 2 mM L-glutamine and 500 μM L-tryptophan. IDO expression was induced in the SKOV3 cells by the addition of 500 ng/ml IFN-γ. Cells were incubated at 37° C. with or without the addition of test compound. After 48 hours, the cells were removed by centrifugation and Erhlich's reagent was added to the supernatant.

[2] = molecular target: T2, TDO (Homo sapiens (Human), UniProt P48775); experiment: A172 (TDO) cell based assay for detection of kynurenine; details: A172 cells, 48 hours, read-out: pIC50 A172 (TDO) cell based assay (converted)
T2 sequence (P48775 whole entry): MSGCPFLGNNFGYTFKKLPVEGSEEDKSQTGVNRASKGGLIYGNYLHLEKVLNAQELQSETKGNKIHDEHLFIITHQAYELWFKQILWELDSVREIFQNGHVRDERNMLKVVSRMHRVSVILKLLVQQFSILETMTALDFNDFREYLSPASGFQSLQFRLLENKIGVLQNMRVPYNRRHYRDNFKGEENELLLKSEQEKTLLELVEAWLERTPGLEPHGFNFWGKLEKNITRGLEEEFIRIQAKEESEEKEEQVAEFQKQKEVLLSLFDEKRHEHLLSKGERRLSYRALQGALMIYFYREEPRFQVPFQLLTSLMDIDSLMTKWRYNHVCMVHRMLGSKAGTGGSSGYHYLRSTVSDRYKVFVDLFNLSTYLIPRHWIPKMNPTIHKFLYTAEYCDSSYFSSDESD
Experimental: as §1, §2, §3

[3] = molecular target: T1, IDO; experiment: hIDO biochemical coupled assay; details: 45 μM L-tryptophan
Experimental: as §1
(§4) TDO and IDO Biochemical Coupled Assay
(§5) Recombinant human IDO or TDO was incubated in 50 mM KPO4 (pH 7.0), 0.5 mM EGTA, 0.5 mM EDTA, 0.05% Triton™ X100, 20 mM ascorbate, 10 μM methylene blue, 500 U/ml catalase, 50 μg/ml KynB (kynurenine formamidase). […] After incubation for 17 minutes at room temperature the reactions were stopped by the addition of Erhlich's reagent and incubated at room temperature for 5 minutes before the fluorescence was read.

[4] = molecular target: T2, TDO; experiment: hTDO biochemical coupled assay; details: 330 μM L-tryptophan
Experimental: as §1, §4, §5

T1 sequence (P14902 whole entry): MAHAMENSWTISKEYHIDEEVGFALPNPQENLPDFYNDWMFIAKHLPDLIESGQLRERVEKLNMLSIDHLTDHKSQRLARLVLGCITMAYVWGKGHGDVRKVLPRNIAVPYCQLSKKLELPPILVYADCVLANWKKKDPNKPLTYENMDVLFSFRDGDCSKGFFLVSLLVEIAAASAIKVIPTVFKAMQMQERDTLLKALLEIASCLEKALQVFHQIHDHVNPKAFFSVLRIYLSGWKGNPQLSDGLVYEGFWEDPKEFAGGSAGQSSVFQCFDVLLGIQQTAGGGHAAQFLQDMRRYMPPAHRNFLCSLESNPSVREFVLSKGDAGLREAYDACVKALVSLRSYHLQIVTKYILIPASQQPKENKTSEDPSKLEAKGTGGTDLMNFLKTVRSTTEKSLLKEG

Compound | IC50 [1] [µM] | IC50 [2] [µM] | pIC50 hIDO biochemical coupled assay [3] | pIC50 hTDO biochemical coupled assay [4]
CN1C(=O)NC2(CCN(c3cc(C(F)(F)F)cc4cncn34)CC2)C1=O [Example 6, 3-Methyl-8-(7-(trifluoromethyl)imidazo[1,5-a]pyridin-5-yl)-1,3,8-triazaspiro[4.5]decane-2,4-dione] | 6.17 | > 10 | 5.89 | 5.74
O=C1NC(=O)C2(CCN(c3cc(Br)cc4cncn34)CC2)N1 [Example 2, 8-(7-Bromoimidazo[1,5-a]pyridin-5-yl)-1,3,8-triazaspiro[4.5]decane-2,4-dione] | 0.562 | > 10 | 7.19 | 6.29
CC1(C)CN(c2cc(Cl)cc3cncn23)CCC12NC(=O)NC2=O (stereo not shown) [Example 11, 8-(7-Chloroimidazo[1,5-a]pyridin-5-yl)-6,6-dimethyl-1,3,8-triazaspiro[4.5]decane-2,4-dione] | 3.72 | 2.09 | 6.99 | 6.33
O=C1CC2(CCN(c3cc(C(F)(F)F)cc4cncn34)CC2)C(=O)N1 [Example 13, 8-(7-(trifluoromethyl)imidazo[1,5-a]pyridin-5-yl)-2,8-diazaspiro[4.5]decane-1,3-dione] | 1.26 | > 10 | 6.53 | 5.77
O=C1NC2(CCN(c3cc(C(F)(F)F)cc4cncn34)CC2)C(=O)N1c1ccccc1 [Example 9, 3-Phenyl-8-(7-(trifluoromethyl)imidazo[1,5-a]pyridin-5-yl)-1,3,8-triazaspiro[4.5]decane-2,4-dione] | 1.74 | > 10 | 6.58 | 5.78
CC1(C)CN(c2cc(C(F)(F)F)cc3cncn23)CCC12NC(=O)N(CC1CCOCC1)C2=O (stereo not shown) [Example 14, 6,6-dimethyl-3-((tetrahydro-2H-pyran-4-yl)methyl)-8-(7-(trifluoromethyl)imidazo[1,5-a]pyridin-5-yl)-1,3,8-triazaspiro[4.5]decane-2,4-dione] | 4.68 | > 10 | 5.92 | 4.78
CC1(C)CN(c2cc(C(F)(F)F)cn3cncc23)CCC12NC(=O)NC2=O (stereo not shown) [Example 12, 6,6-Dimethyl-8-(6-(trifluoromethyl)imidazo[1,5-a]pyridin-8-yl)-1,3,8-triazaspiro[4.5]decane-2,4-dione] | 1.17 | 0.661 | 5.74 | 6.1
O=C1NC(=O)C2(CCN(c3cc(C(F)(F)F)cn4cncc34)CC2)N1 [Example 4, 8-(6-(Trifluoromethyl)imidazo[1,5-a]pyridin-8-yl)-1,3,8-triazaspiro[4.5]decane-2,4-dione] | 4.79 | > 10 | 5.99 | 5.84
O=C1NC(=O)C2(CCN(c3cc(C(F)(F)F)cc4cncn34)CC2)N1 [Example 1, 8-(7-(Trifluoromethyl)imidazo[1,5-a]pyridin-5-yl)-1,3,8-triazaspiro[4.5]decane-2,4-dione] | 0.617 | > 10 | 7.53 | 5.6
CC1(C)CN(c2cc(Br)cc3cncn23)CCC12NC(=O)NC2=O (stereo not shown) [Example 16, 8-(7-Bromoimidazo[1,5-a]pyridin-5-yl)-6,6-dimethyl-1,3,8-triazaspiro[4.5]decane-2,4-dione] | 0.135 | 7.94 | 7.06 | 5.92

More lines, now with the values ahead:

IC50 [1] [µM] | IC50 [2] [µM] | pIC50 hIDO biochemical coupled assay [3] | pIC50 hTDO biochemical coupled assay [4] | Compound
1.41 | > 10 | 6.55 | 5.85 | O=C1NC(=O)C2(CCN(c3cc(Cl)cc4cncn34)CC2)N1 [Example 3, 8-(7-Chloroimidazo[1,5-a]pyridin-5-yl)-1,3,8-triazaspiro[4.5]decane-2,4-dione]
0.2 | 7.94 |  |  | CC1(C)CN(c2cc(Cl)cc3cncn23)CCC12NC(=O)NC2=O (stereo not shown) [Example 8, 8-(7-Chloroimidazo[1,5-a]pyridin-5-yl)-6,6-dimethyl-1,3,8-triazaspiro[4.5]decane-2,4-dione]
3.63 | 10 | 5.92 | 5.4 | O=C1NC2(CCN(c3cc(C(F)(F)F)cc4cncn34)CC2)C(=O)N1CC1CCOCC1 [Example 7, 3-((Tetrahydro-2H-pyran-4-yl)methyl)-8-(7-(trifluoromethyl)imidazo[1,5-a]pyridin-5-yl)-1,3,8-triazaspiro[4.5]decane-2,4-dione]
5.62 | > 10 | 5.66 | 4.42 | CC1(C)CN(c2cc(C(F)(F)F)cc3cncn23)CCC12NC(=O)N(c1ccccc1)C2=O (stereo not shown) [Example 15, 6,6-Dimethyl-3-phenyl-8-(7-(trifluoromethyl)imidazo[1,5-a]pyridin-5-yl)-1,3,8-triazaspiro[4.5]decane-2,4-dione]
7.76 | > 10 | 6.2 | 5.57 | CN1C(=O)NC2(CCN(c3cc(C(F)(F)F)cc4cncn34)CC2(C)C)C1=O (stereo not shown) [Example 10, 3,6,6-Trimethyl-8-(7-(trifluoromethyl)imidazo[1,5-a]pyridin-5-yl)-1,3,8-triazaspiro[4.5]decane-2,4-dione]
